Assay results as given in patent publication US10532987B2, “Compounds and methods for inducing browning of white adipose tissue” (GUANGZHOU INSTITUTES OF BIOMEDICINE AND HEALTH, CHINESE …, priority 2015, dated 2020).

Columns and labels:
Ucp1 = experiment: UCP1 luciferase assay (Ucp1 up-regulation in differentiated inguinal adipocytes of Ucp1-luciferase knock-in mice); type: cell-based; settings: Mus musculus, Adipocyte, 48 h; at 3 μM; 2 days treatment; luciferase activity; read-out: Ucp1 activation fold/corresponding concentration
Procedure: TEST EXAMPLE 1 UCP1 Luciferase Assay
Evaluating Compounds that Induce Ucp1 Up-Regulation
Ucp1-luciferase knock-in mice will be housed in cages and fed on standard chow diets (the detailed procedures please see reference 14). The 8-week-old mice will be killed by the cervical dislocation and put into 75% alcohol for 5 minutes. The inguinal adipose tissue will be dissected out and transferred to the three 10-cm petri dishes and washed with PBS for three times. The adipose tissue will be dissected and minced on a 10-cm petri dish for several minutes and then pipetted into 20 ml 0.1% collagenase solution in 50 ml conical tubes and digested at 37° C. for 1 hour. Next, 20 ml culture medium will be added to terminate the digestion and centrifuged for 10 minutes at 1000 rpm respectively. The supernatants will be removed and the pellets re-suspended in 10 mL culture medium and plated into 10-cm plates. The cells will be left to adhere to the plates overnight and the culture medium will be changed every other day. The confluent cells will be trypsinized, counted and plated to 24-well plate (5×10^4 cells/well). The cells will be washed and re-fed the next day (as day −2). Two days later (day 0), the cells will usually become confluent and be induced to differentiate with MDIR medium. On day 2, the medium will be changed to IR medium and re-fed every 2 days. Complete differentiation is usually achieved by day 10. On day 10, the medium will be changed to the culture medium of 10% FBS/DMEM with indicated drugs along with the positive and negative controls for 2 days. The media will be removed and the cells washed with 1 ml PBS per well three times. Then 100 μl lysis buffer will be used to lyse the cells at 4° C. for 1 hour. 30 μl culture medium, 30 μl cell lysates and 60 μl Steady-Glo® Reagent were added to a well of 96-well-plate and the luminescence will be measured using a luminometer. The protein concentration will be determined using 20 μl cell lysates and specific activity of luciferase will be tabulated and data analyzed.

white adipose tissue = experiment: High fat diet induced obesity mouse model; hematoxylin and eosin staining and UCP1 immunochemistry of adipose tissue; type: in vivo, mice; settings: 50 mg/kg daily gavage, compared with control group
Procedure: 8-week-old male mice (57BL/6J) were housed in metabolism cages and maintained on a 12 h lightdark cycle at 23° C. and fed high fat diet (HFD) (21.9 kJ/g, 60% of energy as fat, 20% of energy as protein, 20% of energy as carbohydrate; D12492; Research Diet, New Brunswick, N.J., USA) for 8 weeks. Then, diets induced obese mice were randomized into two groups according to glucose levels and body weight and gavaged with daily indicated drugs (50 mg/kg) or vehicle. Food intake and body weight was measured weekly. All experiments with animals were approved by the Animal Care and Use Committee of Guangzhou Institute of Biomedicine and Health, Chinese Academy of Sciences.
Hematoxylin and eosin staining was performed as the standard protocol (see reference 15). As to the results, please see FIG. 1 (left panel) using compound 1 as the test compound.
Wash sections in dH2O three times for 5 minutes each. Incubate sections in 3% hydrogen peroxide for 10 minutes. Wash sections in dH2O twice for 5 minutes each, and then wash sections in wash buffer for 5 minutes. Block each section with 100-400 μl blocking solution for 1 hour at room temperature. Remove blocking solution and add 100-400 μl primary UCP1 antibody to each section. Incubate overnight at 4° C. Remove antibody solution and wash sections in wash buffer three times for 5 minutes each. […]

COc1ccc(-c2csc(Nc3ccccn3)n2)cc1OC [Compound 1, 4-(3,4-dimethoxyphenyl)-N-(pyridin-2-yl)thiazol-2-amine]
fold induction at 3 µM (Ucp1): 5.2
browning of adipose tissue (hematoxylin and eosin staining and UCP1 immunochemistry) (white adipose tissue; 16-week-old obese mice (57BL/6J) induced by high fat diet for 8 weeks): promotes browning of adipose tissue
adipose tissue cell size and cell number (white adipose tissue; 16-week-old obese mice induced by high fat diet for 8 weeks): reduced cell size and increased cell number
